Test results reported in US9884842B2, “Combretastatin analogs” (The Board of Trustees of the University of Arkansas, priority 2013, dated 2018).

How the values were obtained:
[1] = test system: SF-295; assay: NCI growth inhibition and cytotoxicity screen, CNS Cancer panel; assay type: cell-based; details: Homo sapiens, SF-295, Table 1, cell line SF-2395 (CNS Cancer)
[2] = test system: HL-60(TB); assay: cells; details: Homo sapiens
[3] = test system: K-562; assay: NCI growth inhibition and cytotoxicity screen, Leukemia panel; details: Homo sapiens
[4] = test system: RPMI-8226; assay: as above; details: Homo sapiens
[5] = test system: LOX-IMVI; assay: NCI growth inhibition and cytotoxicity screen, Melanoma panel; details: Homo sapiens
[6] = test system: MALME-3M; assay: as above; details: Homo sapiens
[7] = test system: M14; assay: as above; details: Homo sapiens
[8] = test system: SK-MEL-2; assay: as above; details: Homo sapiens
[9] = test system: SK-MEL-28; assay: as above; details: Homo sapiens
[10] = test system: UACC-62; assay: as above; details: Homo sapiens
[11] = test system: SF-539; assay: NCI growth inhibition and cytotoxicity screen, CNS Cancer panel; details: Homo sapiens
[12] = test system: SNB-75; assay: as above; details: Homo sapiens
[13] = test system: U251; assay: as above; details: Homo sapiens
[14] = test system: A549/ATCC; assay: NCI growth inhibition and cytotoxicity screen, Lung Cancer panel; details: Homo sapiens
[15] = test system: HOP-62; assay: as above; details: Homo sapiens
[16] = test system: HOP-92; assay: as above; details: Homo sapiens
[17] = test system: NCI-H226; assay: as above; details: Homo sapiens
[18] = test system: NCI-H460; assay: as above; details: Homo sapiens
[19] = test system: HCT-15; assay: NCI growth inhibition and cytotoxicity screen, Colon Cancer panel; details: Homo sapiens
[20] = test system: HT29; assay: as above; details: Homo sapiens
[21] = test system: SW-620; assay: as above; details: Homo sapiens
[22] = test system: 786-0; assay: NCI growth inhibition and cytotoxicity screen, Renal Cancer panel; details: Homo sapiens
[23] = test system: A498; assay: as above; details: Homo sapiens
[24] = test system: CAKI-1; assay: as above; details: Homo sapiens
[25] = test system: SN12C; assay: as above; details: Homo sapiens
[26] = test system: TK-10; assay: as above; details: Homo sapiens
[27] = test system: UO-31; assay: as above; details: Homo sapiens
[28] = test system: MDA-MB-231/ATCC; assay: NCI growth inhibition and cytotoxicity screen, Breast Cancer panel; details: Homo sapiens
[29] = test system: OVCAR-4; assay: NCI growth inhibition and cytotoxicity screen, Ovarian Cancer panel; details: Homo sapiens
[30] = test system: OVCAR-5; assay: as above; details: Homo sapiens
[31] = test system: OVCAR-8; assay: as above; details: Homo sapiens

COc1cc(/C=C/c2nc3ccccc3s2)cc(OC)c1OC [Formula (I)(d)]
GI50 [1]: 0.07 nM
CC50 ([1]; read-out: LC50 (the source's name)): > 100000 nM
GI50 ([2]; HL-60): 0.037 nM
CC50 ([2]; HL-60, read-out: LC50): > 100000 nM
GI50 ([3]; K562): 0.041 nM
CC50 ([3]; K562, read-out: LC50): > 100000 nM
GI50 ([4]; RPMI-8226): 0.15 nM
CC50 ([4]; RPMI-8226, read-out: LC50): > 100000 nM
GI50 [5]: 1.9 nM
CC50 ([5]; read-out: LC50): 67900 nM
GI50 [6]: 0.07 nM
CC50 ([6]; read-out: LC50): 51600 nM
GI50 ([7]; M14): 0.063 nM
CC50 ([7]; M14, read-out: LC50): 48500 nM
GI50 ([8]; SK-MEL-2): 0.064 nM
CC50 ([8]; SK-MEL-2, read-out: LC50): 64200 nM
GI50 ([9]; SK-MEL-28): 0.31 nM
CC50 ([9]; SK-MEL-28, read-out: LC50): 50500 nM
GI50 ([10]; UACC-62): 0.05 nM
CC50 ([10]; UACC-62, read-out: LC50): 55900 nM
GI50 ([11]; SF-539): 0.076 nM
CC50 ([11]; SF-539, read-out: LC50): 56200 nM
GI50 ([12]; SNB-75): 0.16 nM
CC50 ([12]; SNB-75, read-out: LC50): > 100000 nM
GI50 ([13]; U-251): 0.88 nM
CC50 ([13]; U-251, read-out: LC50): > 100000 nM
GI50 ([14]; A549): 0.11 nM
CC50 ([14]; A549, read-out: LC50): > 100000 nM
GI50 ([15]; HOP-62): 0.39 nM
CC50 ([15]; HOP-62, read-out: LC50): 81500 nM
GI50 ([16]; HOP-92): 0.036 nM
CC50 ([16]; HOP-92, read-out: LC50): 77400 nM
GI50 ([17]; NCI-H226): 0.24 nM
CC50 ([17]; NCI-H226, read-out: LC50): 88500 nM
GI50 ([18]; NCI-H460): 0.11 nM
CC50 ([18]; NCI-H460, read-out: LC50): > 100000 nM
GI50 ([19]; HCT-15): 0.063 nM
CC50 ([19]; HCT-15, read-out: LC50): > 100000 nM
GI50 ([20]; HT-29): 0.038 nM
CC50 ([20]; HT-29, read-out: LC50): > 100000 nM
GI50 ([21]; SW-620): 0.43 nM
CC50 ([21]; SW-620, read-out: LC50): > 100000 nM
GI50 ([22]; 786-0): 1.32 nM
CC50 ([22]; 786-0, read-out: LC50): > 100000 nM
GI50 ([23]; A498): 0.041 nM
CC50 ([23]; A498, read-out: LC50): 35800 nM
GI50 ([24]; CAKI-1): 0.14 nM
CC50 ([24]; CAKI-1, read-out: LC50): > 100000 nM
GI50 [25]: 9.37 nM
CC50 ([25]; read-out: LC50): > 100000 nM
GI50 ([26]; TK-10): 11.1 nM
CC50 ([26]; TK-10, read-out: LC50): > 100000 nM
GI50 ([27]; UO-31): 0.37 nM
CC50 ([27]; UO-31, read-out: LC50): > 100000 nM
GI50 ([28]; MDA-MB-231): 0.71 nM
CC50 ([28]; MDA-MB-231, read-out: LC50): > 100000 nM
GI50 ([29]; OVCAR-4): 1.81 nM
CC50 ([29]; OVCAR-4, read-out: LC50): > 100000 nM
GI50 ([30]; OVCAR-5): 0.93 nM
CC50 ([30]; OVCAR-5, read-out: LC50): > 100000 nM
GI50 ([31]; OVCAR-8): 0.39 nM
CC50 ([31]; OVCAR-8, read-out: LC50): > 100000 nM
